Laboratory results as given in patent publication US10238713B2, “Cyclic tetrapeptides and therapeutic applications thereof” (LODZ UNIVERSITY OF TECHNOLOGY, priority 2010, dated 2019).
Values joined by “and” are separate entries in the source; they are usually repeats but may differ in a detail not shown here. Identical values can stand only once. Non-standard residues stand in square brackets, D forms with d. Residues, ends and D or L forms follow the SMILES beside them. β3hF = N[C@H](CC(=O)O)Cc1ccccc1

What was measured:
[1] = test system: PHA-induced proliferation of human peripheral blood mononuclear cells (PBMC); assay: Proliferative response of PBMC to PHA (MTT); assay type: cell-based; details: 1 μg/ml, four-day incubation; FIGS. 9A-9B; listed as 4B8M
Procedure: PBMC were isolated by centrifugation on Ficoll-uropoline gradient (density 1.077 g/ml) (Lymphoprep; PAA Laboratories), at 800×g for 20 min at 4° C. The interphase cells, consisting of lymphocytes (20%) and monocytes (80%) were then washed three times with Hanks' medium and re-suspended in the culture medium at density of 2×10^6 cells/ml.
The isolated PBMC were distributed into 96-well flat-bottom plates in 100 μl aliquots (2×10^5 cells/well). PHA was used at concentration of 5 μg/ml. The compounds were tested at concentrations of 1, 10 and 100 μg/ml. DMSO at appropriate dilutions served as control. After a four-day incubation in a cell culture incubator, the proliferative response of cells was determined by the colorimetric MTT method (Hansen et al., J. Immunol. Methods, 1989, pp. 203-210). The data are presented as a mean OD value from quadriplicate wells ±standard error (SE). The cultures “Control (−)” contained no mitogen (PHA). The cultures “Control (PHA)” contained PHA but not cyclic tetrapeptides.
Briefly, 25 μl of MTT (5 mg/ml) stock solution was added per well at the end of cell incubation and the plates were incubated for 3 h in a cell culture incubator. Then, 100 μl of the extraction buffer (20% SDS with 50% DMF, pH 4.7) was added. After additional overnight incubation, the optical density was measured at 550 nm (Dynatech 5000).

[2] = test system: CBA mice, humoral immune response to sheep erythrocytes; assay: Primary humoral immune response to SRBC in vivo (antibody-forming cells in spleen); details: 10 or 100 μg, intraperitoneal, 2 h after immunization, measured after 4 days; FIG. 6
Procedure: CBA female mice, 8-12 weeks old, were delivered by The Institute of Laboratory Medicine, Lodz, Poland. The mice had free access to water and pelleted food. The local ethics committee approved the study. Sheep erythrocytes (SRBC) were delivered by Wroclaw University of Life and Environmental Sciences, Poland, and maintained on RPMI-1640 medium.
Mice were immunized with 0.2 ml of 5% SRBC suspension (0.5 ml of SRBC pellet re-suspended to a volume of 10 ml of 0.9% NaCl), intraperitonelly. After 4 days the number of antibody-forming cells (AFC) in the spleens was determined using an assay of local hemolysis in agar gel (per Mishell et al., J Exp Med, 1967, 126, 423-442). The results are presented in FIG. 6 as a mean value of 5 mice ±standard error and expressed as AFC number per 10^6 of viable splenocytes.
Mice were immunized with SRBC as described above and after 2 h were given 10 or 100 μg of the compound of formula I-A. Cyclosporin A (CsA) served as a reference drug. The number of antibody-forming cells to SRBC was measured after 4 days.

[3] = test system: BALB/c mice, immune response to TDI; assay: Toluene diisocyanate (TDI)-induced ear inflammation in BALB/c mice; assay type: in vivo
Procedure: BALB/c female mice, 8-10 weeks old, were delivered by the Institute of Laboratory Medicine, Łódź, Poland. The mice were fed a commercial, pelleted food and water ad libitum. The local ethics committee approved the study.
The test was performed according to Yamamoto, Eur. J. Pharmacol., 2006, 550, 166-172, with minor modifications. Mice were shaved on the abdomen (2×2 cm area) and after 24 h 100 μl of 3% TDI in acetone was applied through 3 consecutive days. After 14 days the reaction was elicited by application of 50 μl of 0.3% TDI on both sides of the ears. The procedure was repeated 5 times every 3 days. Ear thickness was measured using a spring caliper (Mitutoyo) 5 h and 24 h after each challenge with TDI.
Compound I-A was applied topically in the form of 0.1% ointment on both sides of the ears (total volume of 100 μl-50 μl per ear), one hour after each challenge with TDI. The reference drugs were applied in a similar way.
Superficial parotid, mandibular and accessory mandibular lymph nodes were isolated, homogenized by pressing against a stainless screen into PBS, washed 2× with PBS and re-suspended in PBS containing 0.2% Trypan blue. The total and nonviable cell numbers were counted using a light microscope and Bürker's hemocytometer.
Mice were subjected to halothane anesthesia and bled from the retro-orbital plexus, followed by the cervical dislocation. The number of blood leukocytes was determined by dilution of blood in Turk's solution and counting the cells in a hemocytometer. Blood smears were prepared on microscope glass, dried and stained with Giemsa and May-Grünwald reagents. The smears were subsequently reviewed histologically. The cell numbers were presented per 1 μl and the blood cell compositions as a percentage of a given cell type.
Mice were given 1 mg of Evans blue in 0.2 ml of 0.9% NaCl, intravenously. After 30 min mice were sacrificed, the ears were cut off, weighed and immersed in 50 μl of 1M KOH for 18 h at 37° C. The dye was extracted from the ears using 450 μl of 0.2 M phosphate acid and acetone (5:13 ratio). The samples were centrifuged at 3,000 rpm for 15 min. The optical densities (OD) of the supernatants were measured at 630 nm. The amount of Evans blue (g/ml) was determined based on a standard curve. The results were presented as the amount of Evans blue per 100 mg of wet tissue. Mice treated only with the eliciting dose of antigen served as a background control.
The auricles were fixed in 4% formalin solution for 48 h, washed for 24 h, dehydrated in an alcohol series and embedded in paraffin. The paraffin blocks were sliced in a Micron HM310 microtome into […]. The sections were stained with haematoxylin and eosin and with toluidine blue. Histological analysis was performed using a Nikon Eclipse 801light microscope. Morphometric estimations of neutrophils, macrophages, lymphocytes and mast cells in the perivascular and subepithelial connective tissue were performed on the histological slides containing cross-sections of auricles. Cells were counted on an area of 0.07 mm^2 at 400× magnification. Morphometric analysis was performed using an imagine software NIS-Elements (Nikon). For every preparation examined, 25 enumerations of neutrophils, macrophages, lymphocytes and mast cells were carried out.

[4] = test system: CBA mice, cellular immune response to ovalbumin; assay: Delayed type hypersensitivity (DTH) test to ovalbumin; assay type: in vivo; details: two 100 μg intraperitoneal doses; FIG. 7
Procedure: Male CBA mice 8-12 weeks old were delivered by The Institute of Laboratory Medicine, Lodz, Poland. The mice had free access to water and pelleted food. Ovoalbumin was from Sigma and the adjuvants from Difeo.
Mice were sensitized subcutaneously with 5 μg of ovalbumin (OVA) emulsified in Freund's complete adjuvant in the tail base. After 4 days the mice were challenged with 50 μg of OVA in Freund's incomplete adjuvant in the hind footpads. Following the next 24 hours, the footpad thickness was measured using a caliper. Controls (background response mice) were not sensitized but received the challenging dose of OVA. The compound of formula I-A and the reference compound were administered to mice in two 100 μg intraperitoneal doses, 2 h before and 24 h after the sensitizing dose of antigen.

For `O=C1C[C@H](Cc2ccccc2)NC(=O)[C@@H]2CCCN2C(=O)[C@@H]2CCCN2C(=O)[C@H](Cc2ccccc2)N1` [I-A] (cyclo(FPP[β3hF])), the “PHA-induced PBMC proliferation, P vs DMSO at appropriate dilution” value [1] was 0.9995 and 0.9919, the “inhibition of the number of antibody-forming cells to SRBC” value [2] was “more inhibitory at both doses than CsA” and the “ear thickness, P vs Control” value ([3]; 5 h after challenge, Day 14, topical 1 h after each TDI challenge, FIG. 10A) was 0.0005. The “ear thickness, P vs Control” value ([3]; 5 h after challenge, Day 17, FIG. 10A) was 0.0001, the “ear thickness, P vs Control” value ([3]; 5 h after challenge, Day 20, FIG. 10A) was 0.0001 and the “ear thickness, P vs Control” value ([3]; 5 h after challenge, Day 23, FIG. 10A) was 0.0001. The “ear thickness, P vs Control” value ([3]; 5 h after challenge, Day 27, FIG. 10A) was 0.0001, the “ear thickness, P vs Control” value ([3]; 24 h after challenge, Day 14, FIG. 10B) was 0.0001 and the “ear thickness, P vs Control” value ([3]; 24 h after challenge, Day 17, FIG. 10B) was 0.0001. For the same compound, the “ear thickness, P vs Control” value ([3]; 24 h after challenge, Day 20, FIG. 10B) was 0.0006, the “ear thickness, P vs Control” value ([3]; 24 h after challenge, Day 23, FIG. 10B) was 0.0001 and the “ear thickness, P vs Control” value ([3]; 24 h after challenge, Day 27, FIG. 10B) was 0.0001. For the same compound, the “permeability of capillary blood vessels in the Evans blue test, P vs Control” value ([3]; 24 h after the fifth challenge with TDI (day 28), FIG. 11) was 0.030, the “total number of cells in the draining lymph nodes, P vs Control” value ([3]; ANOVA of Kruskal-Wallis, FIG. 12) was 0.0001 and the “numbers of circulating leukocytes, P vs Control” value ([3]; ANOVA, FIG. 13) was 0.0001. The “total number of cells in the draining lymph nodes” value ([3]; FIG. 12) was “reduction of the lymph node cell numbers almost to the background levels”, the “blood cell composition, Eosinophils (E), P vs Control” value ([3]; FIG. 14) was 0.0001 and the “blood cell composition, Lymphocytes (L), P vs Control” value ([3]; FIG. 14) was 0.0043. For the same compound, the “blood picture (neutrophil and eosinophil contents)” value ([3]; FIG. 14) was “normalized”, the “auricle Ne (neutrophils), P vs Control” value ([3]; FIG. 15) was 0.0151 and the “cell numbers in the auricles after treatment” value ([3]; area 0.07 mm^2, cell type not stated, sensitized untreated control: 20 mastocytes, 23 neutrophils, FIG. 15) was 14.8 cells per the analyzed area. For the same compound, the “effect on delayed-type hypersensitivity reaction to OVA (footpad thickness)” value [4] was “inhibited the delayed-type hypersensitivity reaction to OVA” and the “suppressive action on DTH compared with reference compounds” value [4] was “stronger than those of CLA and CsA”.
